Patent US20160376659A1, “Breast Cancer Biomarker” (The University of Manchester, priority 2015, published 2016)

What was measured:
NOTCH4-ICD and JAG1 [1] = experiment: NOTCH4-ICD and JAG1 Western Blot in MCF-7 cells; type: cell-based, human; conditions: short term treatment of MCF-7 cells in vitro
Experimental: (§1) MCF7, T47D and ZR-75-1 cell lines were purchased from American Tissue Culture Collection (ATCC) and cultured in DMEM/F-12, GlutaMAX (Gibco) with 10% FBS (Gibco). Cells were treated for 3 days or 6 days with ethanol (control), 10^-6M 4-OH-tamoxifen or 10^−7M fulvestrant and/or with 10 μM of gamma-secretase inhibitor RO4929097 (Cellagen Technology) or DMSO (control).
Proteins were extracted with Protein Lysis Buffer (25 mM HEPES, 50 mM NaCl, 30 mM NaPP, 50 mM NaF, 1% Triton-X-100, 10% Glycerol, 5 mM EDTA, Protease Inhibitor cocktail, 1 μM PMSF). Lysates were placed on a rotator for 1 hour at 4° C., then were centrifuged at 10000 g at 4° C. for 10 min, and supernatants were collected. Protein concentrations were assessed using the BCA Protein Assay Kit (Thermo Scientific, 23225). Proteins were separated on a 10% gel (Biorad, 456-1033) by SDS-PAGE at 200V for 1 hour, and then were transferred on polyvinylidene difluoride (PVDF) membranes (BioRad, 170-4157) at 25 V/1,300 mA for 15 min using a Trans Blot Turbo (BioRad, 170-4155). Membranes were blocked in a solution of PBS containing 0.05% Tween-20 and 5% skimmed milk (Marvel) for 1 h at room temperature and primary antibodies were incubated overnight at 4° C. […]

[2] = tested on: MCF-7, T47D and ZR-75-1 cells; experiment: BCSC activity (MFE, ALDH-positive cells) of pre-treated ER+ cell lines; type: cell-based, human; conditions: for ALDH-positive cells / mammosphere-forming activity: 6 days in vitro pre-treatment, 10^−6 M tamoxifen, 10^−7 M fulvestrant
Experimental: Single cell suspensions of freshly isolated ER+ primary and metastatic patient-derived samples were cultured for 7-9 days (primary cells) in mammosphere colony assays in the presence of ethanol, 10^−6 M 4-hydroxy-tamoxifen or 10^−7 M fulvestrant. Primary mammospheres were dissociated and replated in secondary mammosphere suspension culture for a further 7-9 days to measure self-renewal. Patient-derived xenograft cells were cultured for 7-10 days. For cell lines, cells were pre-treated in adherence and then cultured for 5 days in mammosphere culture. Mammosphere formation efficiency (MFE) was calculated by dividing the number of mammospheres formed (≧50 μm) by the original number of single cells seeded (500 cells/cm^2 for primary cells and 200 cells/cm^2 for cell lines) and is expressed as fold change normalised to control or as the mean percentage of MFE (Shaw et al., 2012).
(§2) Dissociated single cells were suspended in Aldefluor assay buffer containing an ALDH substrate, bodipyaminoacetaldehyde (BAAA) at […], and incubated for 45 min at 37° C. To distinguish between ALDH-positive and -negative cells, a fraction of cells was incubated under identical conditions in the presence of a 2-fold molar excess of the ALDH inhibitor, diethylaminobenzaldehyde (DEAB). Mouse cells were excluded from the FACS analysis with anti-mouse MHC Class I (H-2Kd) antibody conjugated with Pacific Blue (BioLegend, 116616). 7-aminoactinomycin D (7AAD, BD) was added for dead cell exclusion. Data were acquired on a LSR II (BD) flow cytometer and analysed using the BD FACSDiva™ software.
as §1

NOTCH4-ICD and JAG1 [3] = experiment: NOTCH4-ICD and JAG1 Western Blot in PDX treated in vivo; parameters: species or system mice; conditions: 14 day window treatment of PDXs in vivo
Experimental: Tamoxifen citrate (Sigma, T9262, 10 mg/kg/day) and RO4929097 (Cellagen Technology, 3 mg/kg/day) were administered by oral gavage (0.1 ml/dose) on a five day from seven basis (weekends excluded) for fourteen days. Tamoxifen citrate and RO4929097 were prepared in 1% carboxymethylcellulose (Sigma, C9481) dissolved in distilled water. Fulvestrant (kindly provided by Astrazeneca, 200 mg/kg/week) was administered by subcutaneous injection (0.1 ml/dose) on a weekly basis for fourteen days. The HBC×22 and HBC×34 tamoxifen-resistant PDXs have been established by our collaborators in the Curie Institute (Cottu el al, 2014) and were treated for fourteen days in the presence or absence of the gamma-secretase inhibitor RO4929097 (10 mg/kg/day, oral gavage). Xenografts were collected in ice cold DMEM media for live cell assays, histological analysis and RNA and protein extraction. Patient-derived xenograft single cell suspension was obtained using a collagenase-hyaluronidase mixture for digestion (Stem Cell Technologies).
Proteins were extracted with Protein Lysis Buffer (25 mM HEPES, 50 mM NaCl, 30 mM NaPP, 50 mM NaF, 1% Triton-X-100, 10% Glycerol, 5 mM EDTA, Protease Inhibitor cocktail, 1 μM PMSF). […] Protein concentrations were assessed using the BCA Protein Assay Kit (Thermo Scientific, 23225). […]

[4] = tested on: ER+ metastatic BC patient-derived samples; experiment: ALDEFLUOR assay (ALDH enzymatic activity) in metastatic patient-derived cells; type: cell-based, human; conditions: Tamoxifen 10^−6 M or Fulvestrant 10^−7 M, 7-9 days; seven out of nine patient samples
Experimental: Metastatic samples (ascites or pleural effusions) were centrifuged at 1000 g for 10 minutes at 4° C. The cell pellets were diluted in PBS. Erythrocytes and leucocytes were removed using Lymphoprep (Axis-Shield) and CD45-negative magnetic sorting (Miltenyi Biotec), respectively. Cells were cultured in adherence for 7-9 days in DMEM/F-12 medium, GlutaMAX (Gibco) with 10% FBS (Gibco), 10 μg/ml insulin (Sigma), 10 μg/ml hydrocortisone (Sigma) and 5 ng/ml epidermal growth factor (EGF, Sigma), in 10^−6M 4-OH-tamoxifen (Sigma, H7904), 10^−7M fulvestrant (ICI 182780, TOCRIS, 1047) or ethanol (control).
as §2

With `C[C@]12CC[C@@H]3c4ccc(O)cc4C[C@@H](CCCCCCCCC[S+]([O-])CCCC(F)(F)C(F)(F)F)[C@H]3[C@@H]1CC[C@@H]2O` (some centres unmarked) [fulvestrant] the “NOTCH4-ICD and JAG1 protein expression” value (NOTCH4-ICD and JAG1 [1]) was “up-regulated”, the ALDH-positive cells [2] was “enriched” and the mammosphere-forming activity [2] was “enriched”. For the same molecule, the “NOTCH4-ICD and JAG1 protein expression” value (NOTCH4-ICD and JAG1 [3]) was “up-regulated” and the ALDH enzymatic activity [4] was “significant increase”.
With `CC/C(=C(\c1ccccc1)c1ccc(OCCN(C)C)cc1)c1ccccc1` [tamoxifen, (Z)-2-[4-(1,2-diphenylbut-1-enyl)phenoxy]-N,N-dimethylethanamine] the “NOTCH4-ICD and JAG1 protein expression” value (NOTCH4-ICD and JAG1 [1]) was “up-regulated”, the ALDH-positive cells [2] was “enriched” and the mammosphere-forming activity [2] was “enriched”. The “NOTCH4-ICD and JAG1 protein expression” value (NOTCH4-ICD and JAG1 [3]) was “up-regulated” and the ALDH enzymatic activity [4] was “significant increase”.
With `CC(C)(C(=O)NCC(F)(F)C(F)(F)F)C(=O)N[C@@H]1C(=O)Nc2ccccc2-c2ccccc21` [RO4929097] the “BCSC activity as assayed by MFE and ALDH-positive cells” value ([2]; 3 days tamoxifen or fulvestrant concomitantly with RO4929097 10 μM) was “reduced”.
